From the NIST ThermoML archive (doi:10.1021/je034278t)
± gives the expanded uncertainty stated by the source.

Conditions: Liquid

vapor or sublimation pressure (298.15 K): 0.0202 ± 0.0046 kPa | vapor or sublimation pressure (303.15 K): 0.0339 ± 0.005 kPa | vapor or sublimation pressure (308.15 K): 0.0438 ± 0.0054 kPa | vapor or sublimation pressure (313.15 K): 0.0681 ± 0.0064 kPa | vapor or sublimation pressure (318.15 K): 0.0924 ± 0.0075 kPa
SMILES: CC[S+]([O-])CC [diethyl sulfoxide]
